Measured values: patent US6905861B2, “D-aminoacylases, method for producing the same, and method for producing D-amino acids using the same” (Daicel Chemical Industries, Ltd., priority 1998, dated 2005)

Experiments:
[1] = tested on: Hypomyces sepulcralis IFO 9102 strain; assay: D-amino acid production and optical purity from N-acetyl-DL-amino acid by washed fungal cells; assay type: cell-based; details: Hypomyces sepulcralis IFO 9102 cells; 0.1% substrate, pH 7.5, 30° C., 24 hours
Method: (§1) A platinum loopful of Hypomyces rosellus IFO 6911 strain, Hypomyces sepulcralis IFO 9102 strain, or Hypomyces mycophilus IFO 6785 strain was inoculated into 25 ml of YM medium (containing 0.3% yeast extract, 0.3% malt extract, 0.5% peptone, and 2.0% glucose; pH 6.0) in a 500-ml shouldered flask. The fungi were shake-cultured at 24° C. for 3 days. After culturing, a 5-ml aliquot of the culture medium was centrifuged in a refrigerated centrifuge to collect the fungal cells. The cells were washed with physiological saline solution (5 ml), and collected by centrifugation again. A reaction solution (containing 0.1% N-acetyl-DL-amino acid shown in Table 2 below in Tris-HCl buffer, pH 7.5) was added to the cells thus collected. The mixture was incubated in a 5-ml test tube with shaking at 30° C. for 24 hours. D-Amino acid thus produced was assayed by high-performance liquid chromatography (column, CROWNPAK CR (Daicel Chemical); column temperature, 26° C.; mobile phase, HClO4 aqueous solution pH 2.0; flow rate, 1 ml/min; and detection, 200 nm) and examined for the optical purity.

[2] = tested on: Hypomyces rosellus IFO 6911 strain; assay: as above; assay type: cell-based; details: Hypomyces rosellus IFO 6911 cells; 0.1% substrate, pH 7.5, 30° C., 24 hours
Method: as §1

[3] = tested on: Hypomyces mycophilus IFO 6785 strain; assay: as above; assay type: cell-based; details: Hypomyces mycophilus IFO 6785 cells; 0.1% substrate, pH 7.5, 30° C., 24 hours
Method: as §1

D-aminoacylase = assay: Substrate specificity of purified D-aminoacylase (TNBS method); assay type: biochemical, Hypomyces mycophilus IFO 6785; details: for percentage of the specific activity compared with that for N-acetyl-D-methionine taken as 100%, D-enantiomer: 20 mM substrate, 50 mM Tris-HCl pH 7.5, 30° C., 20 min; for activity of the enzyme for the substrate (in words): summary of Table 5
Method: The enzyme activity was assayed by determining the amount of amino acid produced using the TNBS method and the HPLC method. In the TMBS method, 100 mM Na2B4O7 (0.5 ml) was added to a sample solution containing amino acid (0.5 ml), 20 μl of 110 mM TNBS (trinitrobenzenesulfonic acid) was then added, and the resulting mixture was quickly stirred. After 5 min, 100 mM NaH2PO4 containing 1.5 mM Na2SO3 (2 ml) was added to the reaction mixture to terminate the color reaction, and the absorbance at 420 nm was measured. HPLC was performed by subjecting a sample solution containing amino acid to high-performance liquid chromatography using an ODS column (column, Wakosil II 5C18 (4.6 dia.×250 mm) (Wako Pure Chemical); eluent, CH3CN/50 mM KH2PO4. H3PO4 (pH 2.5)=2:8; detection, A280 nm; and flow rate, 1.0 ml/min). The retention times were 3.5 min for D-tryptophan and 9.8 min for N-acetyl-D-tryptophan. Using D-tryptophan as the assay standard, one unit (or U) of the enzyme was defined as the amount of the enzyme required to produce 1 μmol of D-tryptophan at 30° C. for 1 min.
Substrate specificity of the enzyme was expressed as the percentage of the specific activity compared with that for N-acetyl-D-methionine taken as 100%. N-chloroacetyl-D-phenylalanine, N-acetyl-D-valine, N-acetyl-D-phenylalanine, N-acetyl-D-tryptophan, N-acetyl-D-leucine, N-acetyl-L-valine, N-acetyl-L-phenylalanine, N-acetyl-L-tryptophan, and N-acetyl-L-leucine substrates were used for the comparison. The enzyme reaction was performed in 50 mM Tris-HCl (pH 7.5) containing 1 µl of the enzyme solution and 20 mM of each substrate (total volume 1.0 ml) at 30° C. for 20 min, and terminated by adding 0.5 ml of a TCA reaction terminating solution according to Tsai et al. (consisting of 110 mM trichloroacetic acid, 220 mM sodium acetate, and 330 mM acetic acid). The enzyme activity was assayed by the TNBS method as described in Example 4(2).

[4] = tested on: D-aminoacylase (crude enzyme) of Menisporopsis novaezelandiae IFO 9179; assay: Crude enzyme activity for each N-Ac-D-amino acid substrate; assay type: biochemical; details: Menisporopsis novaezelandiae IFO 9179 crude enzyme; 20 mM substrate, 1 mM CoCl2, 50 mM phosphate buffer pH 7.0
Method: (§2) Auricularia auriculajudae IFO 5949, Pythium aphanidermaatum IFO 7030, and Menisporopsis novaezelandiae IFO 9179 were each inoculated into sterilized media (100 ml each) (Czapek Dox Broth for IFO 5949, YM1 medium for IFO 7030, and POTATO DEXTROSE BROTH for IFO 9179) in 500-ml Erlenmeyer flasks. The fungi were cultured on a rotary shaker at 210 rpm at 24° C. for 7 days and collected by centrifugation using a […] centrifuge with a RPR10-2 rotor at 8,000 rpm (12,500×g) for 20 min. […] Disrupted cells thus obtained were centrifuged using a […] centrifuge with a RPR20-2 rotor at 17,500 rpm (38,000×g) for 30 min at 4° C. to obtain the supernatant as the crude enzyme. […] Figures in the table denote the amount (mM) of D-amino acids produced from the corresponding N-acetyl-D-amino acids. The D-aminoacylase activity was detected in all the strains tested, producing D-amino acid from the corresponding N-acetyl-D-amino acid.

[5] = tested on: D-aminoacylase (crude enzyme) of Auricularia auriculajudae IFO 5949; assay: as above; assay type: biochemical; details: Auricularia auriculajudae IFO 5949 crude enzyme; 20 mM substrate, 1 mM CoCl2, 50 mM phosphate buffer pH 7.0
Method: as §2

[6] = tested on: D-aminoacylase (crude enzyme) of Pythium aphanidermaatum IFO 7030; assay: as above; assay type: biochemical; details: Pythium aphanidermaatum IFO 7030 crude enzyme; 20 mM substrate, 1 mM CoCl2, 50 mM phosphate buffer pH 7.0
Method: as §2

[7] = tested on: Fusarium solani IFO 9975 strain; assay: D-amino acid production from N-acetyl-D-amino acid by washed fungal cells; assay type: cell-based; details: Fusarium solani IFO 9975 cells; 0.1% substrate, Tris-HCl pH 7.5, 30° C., 24 hours
Method: (§3) A platinum loopful of Hypomyces aurantius IFO 6847 strain, Hypomyces broomeanus IFO 9164 strain, Hypomyces rosellus IFO 6911 strain, Hypomyces chrysospermus IFO 6817 strain, Hypomyces sepulcralis IFO 9102 strain, Hypomyces subiculosus IFO 6892 strain, Hypomyces mycophilus ATCC 76474 or IFO 6785 strain, or Fusarium solani IFO 9974 or IFO 9975 strain was inoculated into 25 ml of YM medium (containing 0.3% yeast extract, 0.3% malt extract, 0.5% peptone, and 2.0% glucose, pH 6.0) in a 500-ml shouldered flask. The fungi were shake-cultured at 24° C. for 3 days. After culturing, a 5-ml aliquot of the culture medium was centrifuged in a refrigerated centrifuge to collect the fungal cells. The cells were washed with physiological saline solution (5 ml) and collected by centrifugation again. A reaction solution (containing 0.1% N-acetyl-D-amino acid shown in Table 1 below in Tris-HCl buffer, pH 7.5) was then added to the cells thus collected. The mixture was incubated in a 5-ml test tube with shaking at 30° C. for 24 hours.
(§4) D-Amino acid thus produced was determined by high-performance liquid chromatography (column, CROWNPAK CR (Daicel Chemical); column temperature, 26° C.; cooled in ice for only valine; mobile phase, HClO4 aqueous solution, pH 2.0; flow rate, 1 ml/min; and detection, 200 nm).

[8] = tested on: Hypomyces aurantius IFO 6847 strain; assay: as above; assay type: cell-based; details: Hypomyces aurantius IFO 6847 cells; 0.1% substrate, Tris-HCl pH 7.5, 30° C., 24 hours
Method: as §3, §4

Fusarium solani IFO 9974 = assay: as above; assay type: cell-based; details: Fusarium solani IFO 9974 cells; 0.1% substrate, Tris-HCl pH 7.5, 30° C., 24 hours
Method: as §3, §4

[9] = tested on: Hypomyces broomeanus IFO 9164 strain; assay: as above; assay type: cell-based; details: Hypomyces broomeanus IFO 9164 cells; 0.1% substrate, Tris-HCl pH 7.5, 30° C., 24 hours
Method: as §3, §4

[10] = tested on: Hypomyces mycophilus ATCC 76474; assay: as above; assay type: cell-based; details: Hypomyces mycophilus ATCC 76474 cells; 0.1% substrate, Tris-HCl pH 7.5, 30° C., 24 hours
Method: as §3, §4

[11] = tested on: Hypomyces sepulcralis IFO 9102 strain; assay: as above; assay type: cell-based; details: Hypomyces sepulcralis IFO 9102 cells; 0.1% substrate, Tris-HCl pH 7.5, 30° C., 24 hours
Method: as §3, §4

[12] = tested on: Hypomyces chrysospermus IFO 6817 strain; assay: as above; assay type: cell-based; details: Hypomyces chrysospermus IFO 6817 cells; 0.1% substrate, Tris-HCl pH 7.5, 30° C., 24 hours
Method: as §3, §4

[13] = tested on: Hypomyces subiculosus IFO 6892 strain; assay: as above; assay type: cell-based; details: Hypomyces subiculosus IFO 6892 cells; 0.1% substrate, Tris-HCl pH 7.5, 30° C., 24 hours
Method: as §3, §4

[14] = tested on: Hypomyces rosellus IFO 6911 strain; assay: as above; assay type: cell-based; details: Hypomyces rosellus IFO 6911 cells; 0.1% substrate, Tris-HCl pH 7.5, 30° C., 24 hours
Method: as §3, §4

[15] = tested on: Hypomyces mycophilus IFO 6785 strain; assay: as above; assay type: cell-based; details: Hypomyces mycophilus IFO 6785 cells; 0.1% substrate, Tris-HCl pH 7.5, 30° C., 24 hours
Method: as §3, §4

| percentage of the specific activity compared with that for N-acetyl-D-methionine taken as 100%, D-enantiomer (D-aminoacylase) [%] | amount of D-amino acids produced from the corresponding N-acetyl-D-amino acids [4] [mM] | amount of D-amino acids produced from the corresponding N-acetyl-D-amino acids [5] [mM] | amount of D-amino acids produced from the corresponding N-acetyl-D-amino acids [6] [mM] | activity of the enzyme for the substrate (in words) (D-aminoacylase) | SMILES | D-amino acid produced from N-acetyl-DL-amino acid [1] [mg/mL] | D-amino acid produced from N-acetyl-DL-amino acid [2] [mg/mL] | D-amino acid produced from N-acetyl-DL-amino acid [3] [mg/mL] | D-amino acid produced from N-acetyl-D-amino acid [7] [mg/mL] | D-amino acid produced from N-acetyl-D-amino acid [8] [mg/mL] | D-amino acid produced from N-acetyl-D-amino acid (Fusarium solani IFO 9974) [mg/mL] | D-amino acid produced from N-acetyl-D-amino acid [9] [mg/mL] | D-amino acid produced from N-acetyl-D-amino acid [10] [mg/mL] | D-amino acid produced from N-acetyl-D-amino acid [11] [mg/mL] | D-amino acid produced from N-acetyl-D-amino acid [12] [mg/mL] | D-amino acid produced from N-acetyl-D-amino acid [13] [mg/mL] | D-amino acid produced from N-acetyl-D-amino acid [14] [mg/mL] | D-amino acid produced from N-acetyl-D-amino acid [15] [mg/mL] |
| --- | --- | --- | --- | --- | --- | --- | --- | --- | --- | --- | --- | --- | --- | --- | --- | --- | --- | --- |
| 0 | 0.09 | 1.46 | 0.29 |  | CC(=O)N[C@H](C)C(=O)O [N-acetyl-D-alanine, N-Acetyl-D-alanine] |  |  |  |  |  |  |  |  |  |  |  |  |  |
| 298 | 0.44 | 4.34 |  | especially active | CC(=O)N[C@H](Cc1ccccc1)C(=O)O [N-acetyl-D-phenylalanine] |  |  |  | 0.002 | 0.005 | 0.001 | 0.004 | 0.003 | 0.15 | 0.003 | 0.05 | 0.06 | 0.65 |
| 109 | 1.30 | 2.44 |  | very active | CC(=O)N[C@H](Cc1c[nH]c2ccccc12)C(=O)O [N-acetyl-D-tryptophan] |  |  |  | 0.001 | 0.008 | 0 | 0.002 | 0.27 | 0.01 | 0.001 | 0.002 | 0.08 | 0.40 |

Further lines, the molecule ahead of its results:

| SMILES | percentage of the specific activity compared with that for N-acetyl-D-methionine taken as 100%, D-enantiomer (D-aminoacylase) [%] | amount of D-amino acids produced from the corresponding N-acetyl-D-amino acids [4] [mM] | amount of D-amino acids produced from the corresponding N-acetyl-D-amino acids [5] [mM] | amount of D-amino acids produced from the corresponding N-acetyl-D-amino acids [6] [mM] | activity of the enzyme for the substrate (in words) (D-aminoacylase) | D-amino acid produced from N-acetyl-DL-amino acid [1] [mg/mL] | D-amino acid produced from N-acetyl-DL-amino acid [2] [mg/mL] | D-amino acid produced from N-acetyl-DL-amino acid [3] [mg/mL] | D-amino acid produced from N-acetyl-D-amino acid [7] [mg/mL] | D-amino acid produced from N-acetyl-D-amino acid [8] [mg/mL] | D-amino acid produced from N-acetyl-D-amino acid (Fusarium solani IFO 9974) [mg/mL] | D-amino acid produced from N-acetyl-D-amino acid [9] [mg/mL] | D-amino acid produced from N-acetyl-D-amino acid [10] [mg/mL] | D-amino acid produced from N-acetyl-D-amino acid [11] [mg/mL] | D-amino acid produced from N-acetyl-D-amino acid [12] [mg/mL] | D-amino acid produced from N-acetyl-D-amino acid [13] [mg/mL] | D-amino acid produced from N-acetyl-D-amino acid [14] [mg/mL] | D-amino acid produced from N-acetyl-D-amino acid [15] [mg/mL] |
| --- | --- | --- | --- | --- | --- | --- | --- | --- | --- | --- | --- | --- | --- | --- | --- | --- | --- | --- |
| CC(=O)NC(Cc1ccccc1)C(=O)O (racemic) [N-acetyl-DL-phenylalanine] |  |  |  |  |  | 0.12 | 0.21 | 0.16 |  |  |  |  |  |  |  |  |  |  |
| CC(=O)N[C@@H](C(=O)O)C(C)C [N-acetyl-D-valine] | 17.5 | 0.16 | 3.33 |  | somewhat active |  |  |  | 0.22 | 0.14 | 0 | 0.18 | 0.11 | 3.19 | 3.16 | 0.23 | 2.73 | 0.98 |
| CC(=O)NC(Cc1c[nH]c2ccccc12)C(=O)O (racemic) [N-acetyl-DL-tryptophan] |  |  |  |  |  | 0.13 | 0.24 | 0.10 |  |  |  |  |  |  |  |  |  |  |
